# Activity calls are given as the source filed them.
# Assays:
# [1] = molecular target: T1, Neuropeptides B/W receptor type 1 (Homo sapiens, UniProt P48145); assay: Fluorescence-based dose response cell-based high throughput screening assay to identify antagonists of the G-protein coupled receptor 7 (GPR7). [Related pubchem assays: 1952 (Screening assay (GPR7 antagonists).), 1880 (Summary AID.)]; assay type: functional
# T1 sequence (P48145 whole entry): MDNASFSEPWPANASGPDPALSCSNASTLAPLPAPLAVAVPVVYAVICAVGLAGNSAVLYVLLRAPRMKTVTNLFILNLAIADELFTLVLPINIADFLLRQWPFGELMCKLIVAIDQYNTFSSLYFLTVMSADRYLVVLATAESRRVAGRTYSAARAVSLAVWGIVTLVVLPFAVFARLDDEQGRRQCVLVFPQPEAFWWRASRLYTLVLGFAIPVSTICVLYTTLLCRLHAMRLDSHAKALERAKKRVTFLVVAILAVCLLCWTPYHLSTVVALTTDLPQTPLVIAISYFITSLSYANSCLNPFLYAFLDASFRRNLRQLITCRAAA
# [2] = molecular target: Melanin-concentrating hormone receptor 1 (Homo sapiens, UniProt Q99705); assay: Fluorescence-based counterscreen for antagonists of the G-protein coupled receptor 7 (GPR7): cell-based high throughput dose response assay to identify antagonists of the melanin-concentrating hormone receptor 1 (MCHR1).; assay type: functional
# Sequence of Melanin-concentrating hormone receptor 1 (Q99705 whole entry): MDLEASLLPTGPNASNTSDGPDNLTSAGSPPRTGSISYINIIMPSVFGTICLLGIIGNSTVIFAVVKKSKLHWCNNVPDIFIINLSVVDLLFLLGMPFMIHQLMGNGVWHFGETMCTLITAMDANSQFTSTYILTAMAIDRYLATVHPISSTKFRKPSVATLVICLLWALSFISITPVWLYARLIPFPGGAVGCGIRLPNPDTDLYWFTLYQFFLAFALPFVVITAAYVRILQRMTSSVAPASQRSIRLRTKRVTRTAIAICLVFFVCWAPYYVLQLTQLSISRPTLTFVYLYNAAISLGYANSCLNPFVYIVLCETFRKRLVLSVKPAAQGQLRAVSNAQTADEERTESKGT
# Streptococcus [3] = assay: Luminescence Microorganism-Based Dose Response Follow up to Identify Compounds Cytotoxic to Streptococcus. [Related pubchem assays: 1677 (Project Summary), 1915, 1914, 1902 (Retest at Dose), 1900 (Counter Screen), 1662 (Primary HTS)]; assay type: functional, organism-based
# Streptokinase A = molecular target: T2, Streptokinase A (Streptococcus pyogenes serotype M1, UniProt P10520); assay: S. pyogenes streptokinase expression inhibitors, potency, dose response, plasminogen activation absorbance, OD405 (AID 1914); assay type: functional, Streptococcus pyogenes M1 GAS;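 note: secreted streptokinase activity via plasminogen activation per viability signal from cell pellet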
# T2 sequence (P10520 whole entry): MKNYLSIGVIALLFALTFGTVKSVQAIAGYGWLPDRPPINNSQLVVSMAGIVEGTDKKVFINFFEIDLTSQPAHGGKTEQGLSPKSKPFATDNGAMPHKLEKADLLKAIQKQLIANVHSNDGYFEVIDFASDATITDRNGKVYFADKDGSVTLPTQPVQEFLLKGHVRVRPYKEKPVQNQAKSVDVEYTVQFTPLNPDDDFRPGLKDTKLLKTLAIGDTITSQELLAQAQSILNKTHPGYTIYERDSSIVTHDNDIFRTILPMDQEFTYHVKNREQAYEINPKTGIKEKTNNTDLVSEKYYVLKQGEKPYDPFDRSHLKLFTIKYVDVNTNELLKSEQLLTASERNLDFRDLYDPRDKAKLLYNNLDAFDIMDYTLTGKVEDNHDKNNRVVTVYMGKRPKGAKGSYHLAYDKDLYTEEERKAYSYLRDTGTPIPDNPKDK
# Streptococcus [4] = assay: Group A Streptococcus viability loss, dose response, counter-screen for streptokinase expression inhibitor project, luminescence, BacTiterGlo (AID 1915); assay type: functional, organism-based;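 note: potency for reduction of bacterial viability or growth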
# [5] = molecular target: Peroxisome proliferator-activated receptor gamma/Nuclear receptor coactivator 2 (Homo sapiens, UniProt P37231); assay type: functional;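 note: agonist potency for raising coactivator recruitment to the receptor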
# Sequence of Peroxisome proliferator-activated receptor gamma/Nuclear receptor coactivator 2 (P37231 whole entry): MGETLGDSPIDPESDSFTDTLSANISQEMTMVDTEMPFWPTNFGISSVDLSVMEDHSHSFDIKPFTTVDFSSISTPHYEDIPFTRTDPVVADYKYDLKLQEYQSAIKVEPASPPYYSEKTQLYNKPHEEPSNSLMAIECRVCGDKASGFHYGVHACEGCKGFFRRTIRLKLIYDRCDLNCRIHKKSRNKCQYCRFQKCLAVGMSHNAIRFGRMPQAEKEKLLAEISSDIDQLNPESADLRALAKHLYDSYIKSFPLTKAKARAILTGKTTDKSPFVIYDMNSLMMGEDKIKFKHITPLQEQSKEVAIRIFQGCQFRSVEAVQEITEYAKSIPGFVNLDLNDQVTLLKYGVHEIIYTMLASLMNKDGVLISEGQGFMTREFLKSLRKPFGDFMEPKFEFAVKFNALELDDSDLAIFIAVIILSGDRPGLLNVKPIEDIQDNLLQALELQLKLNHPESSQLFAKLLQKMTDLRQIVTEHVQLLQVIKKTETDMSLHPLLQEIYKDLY
# Sequence of Peroxisome proliferator-activated receptor gamma/Nuclear receptor coactivator 2 (Q15596 whole entry, further chain): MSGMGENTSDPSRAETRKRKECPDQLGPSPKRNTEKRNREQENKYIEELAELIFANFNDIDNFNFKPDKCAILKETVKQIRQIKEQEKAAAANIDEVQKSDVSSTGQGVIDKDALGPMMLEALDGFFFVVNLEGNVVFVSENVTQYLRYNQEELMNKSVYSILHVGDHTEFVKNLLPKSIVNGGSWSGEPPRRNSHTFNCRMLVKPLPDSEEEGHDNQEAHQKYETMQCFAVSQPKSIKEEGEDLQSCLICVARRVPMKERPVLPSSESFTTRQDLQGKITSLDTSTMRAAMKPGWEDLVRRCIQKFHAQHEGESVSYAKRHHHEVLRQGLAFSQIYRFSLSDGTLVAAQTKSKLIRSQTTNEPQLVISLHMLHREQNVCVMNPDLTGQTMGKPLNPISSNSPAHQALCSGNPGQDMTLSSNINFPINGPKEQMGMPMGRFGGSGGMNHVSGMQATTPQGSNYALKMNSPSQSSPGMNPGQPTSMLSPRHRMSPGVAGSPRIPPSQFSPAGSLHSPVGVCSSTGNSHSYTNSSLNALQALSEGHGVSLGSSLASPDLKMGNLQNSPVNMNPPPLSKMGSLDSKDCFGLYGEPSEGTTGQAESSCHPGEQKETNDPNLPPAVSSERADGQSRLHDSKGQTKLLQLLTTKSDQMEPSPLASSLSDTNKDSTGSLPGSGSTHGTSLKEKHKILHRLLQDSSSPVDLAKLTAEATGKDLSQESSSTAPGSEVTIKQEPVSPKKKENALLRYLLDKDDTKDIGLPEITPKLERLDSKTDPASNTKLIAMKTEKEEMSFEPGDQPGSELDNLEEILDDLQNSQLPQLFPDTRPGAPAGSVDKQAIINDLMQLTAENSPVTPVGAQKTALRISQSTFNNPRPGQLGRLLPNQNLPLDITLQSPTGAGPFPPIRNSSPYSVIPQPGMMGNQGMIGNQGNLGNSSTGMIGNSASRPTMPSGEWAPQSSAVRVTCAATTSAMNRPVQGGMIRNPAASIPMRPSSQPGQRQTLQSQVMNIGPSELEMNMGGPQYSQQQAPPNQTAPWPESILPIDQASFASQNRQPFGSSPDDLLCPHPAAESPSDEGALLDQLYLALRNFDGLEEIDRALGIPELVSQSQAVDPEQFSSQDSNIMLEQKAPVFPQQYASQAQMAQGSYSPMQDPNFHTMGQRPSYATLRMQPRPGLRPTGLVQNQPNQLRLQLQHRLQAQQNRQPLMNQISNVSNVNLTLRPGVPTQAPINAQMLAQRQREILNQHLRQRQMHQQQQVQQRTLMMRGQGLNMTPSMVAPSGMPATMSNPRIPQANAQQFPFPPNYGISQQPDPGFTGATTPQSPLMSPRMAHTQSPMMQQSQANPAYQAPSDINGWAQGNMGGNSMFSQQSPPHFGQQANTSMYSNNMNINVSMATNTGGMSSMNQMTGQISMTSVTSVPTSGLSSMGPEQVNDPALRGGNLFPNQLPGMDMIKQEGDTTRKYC
# [6] = molecular target: Peroxisome proliferator-activated receptor gamma/Nuclear receptor coactivator 1 (Homo sapiens, UniProt P37231); assay type: functional;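 note: agonist potency as compounds enhance coactivator SRC-1 recruitment to PPARgamma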
# [7] = molecular target: Peroxisome proliferator-activated receptor gamma/Nuclear receptor coactivator 3 (Homo sapiens, UniProt P37231); assay type: functional;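 note: agonist potency for raising coactivator recruitment to the receptor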
# Cytochrome P450 2D6 = Cytochrome P450 2D6 (Homo sapiens, UniProt P10635); assay: qHTS Assay for Inhibitors and Substrates of Cytochrome P450 2D6. [Related pubchem assays: 410 ]; assay type: ADME; settings: read-out: Potency
# Sequence of Cytochrome P450 2D6 (P10635 whole entry): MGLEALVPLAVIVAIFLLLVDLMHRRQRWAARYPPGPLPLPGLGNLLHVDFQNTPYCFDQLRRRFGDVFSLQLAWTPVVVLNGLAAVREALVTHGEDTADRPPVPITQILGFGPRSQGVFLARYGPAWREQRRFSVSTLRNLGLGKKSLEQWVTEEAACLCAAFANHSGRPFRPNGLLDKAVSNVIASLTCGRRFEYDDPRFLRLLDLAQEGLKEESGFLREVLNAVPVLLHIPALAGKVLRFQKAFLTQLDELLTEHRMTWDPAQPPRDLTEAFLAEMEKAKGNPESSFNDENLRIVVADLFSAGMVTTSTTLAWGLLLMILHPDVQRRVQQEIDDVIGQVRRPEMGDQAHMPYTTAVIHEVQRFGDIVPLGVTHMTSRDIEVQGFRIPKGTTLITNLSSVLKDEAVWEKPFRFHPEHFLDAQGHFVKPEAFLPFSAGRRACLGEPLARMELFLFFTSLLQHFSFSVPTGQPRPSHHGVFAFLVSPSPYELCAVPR
# Cytochrome P450 2C9 = Cytochrome P450 2C9 (Homo sapiens, UniProt P11712); settings: Potency
# Sequence of Cytochrome P450 2C9 (P11712 whole entry): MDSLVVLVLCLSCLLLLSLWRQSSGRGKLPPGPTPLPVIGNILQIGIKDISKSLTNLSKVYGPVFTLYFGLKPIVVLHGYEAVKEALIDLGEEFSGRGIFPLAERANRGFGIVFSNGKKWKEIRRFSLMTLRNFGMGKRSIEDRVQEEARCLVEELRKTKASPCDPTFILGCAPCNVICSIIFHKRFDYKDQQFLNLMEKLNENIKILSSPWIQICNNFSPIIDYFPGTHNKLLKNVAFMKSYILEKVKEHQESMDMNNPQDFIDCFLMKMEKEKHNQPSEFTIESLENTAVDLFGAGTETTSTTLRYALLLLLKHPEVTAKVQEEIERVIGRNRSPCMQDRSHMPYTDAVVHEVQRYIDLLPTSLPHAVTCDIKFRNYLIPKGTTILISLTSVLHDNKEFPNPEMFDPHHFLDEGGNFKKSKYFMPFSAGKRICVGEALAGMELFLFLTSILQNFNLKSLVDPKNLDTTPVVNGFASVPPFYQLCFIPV
smiles,measurement,setting,value
COc1ccccc1N(C(=O)c1ccco1)C(C(=O)NC1CCCCC1)c1cc(OC)c(OC)c(OC)c1 (stereo not given),IC50,[1],> 43.8 µM (not active)
same,IC50,[2],> 43.8 µM (not active)
Cc1cc(C)c(NC(=O)c2oc3ccccc3c2COc2ccccc2)c(C)c1,EC50,Streptococcus [3],122 µM (active)
same,EC50,Streptokinase A,6.21 µM (active)
same,EC50,Streptococcus [4],> 150 µM (not active)
O=C(CCN1C(=O)c2ccccc2C1=O)Nc1ccc(-c2nc3ccccc3o2)cc1,EC50,[5],71.6 µM (not active)
same,EC50,[6],74.4 µM (not active)
same,EC50,[7],> 79.4 µM (not active)
CC(C)[C@@]1(NC(=O)[C@@H]2C[C@H]3c4cccc5[nH]cc(c45)C[C@@H]3N(C)C2)O[C@@]2(O)[C@H]3CCCN3C(=O)[C@@H](Cc3ccccc3)N2C1=O,AC50,Cytochrome P450 2D6,31.6 µM (inconclusive)
CCOC(=O)OCC1OC(c2ccc(C(C)=O)cc2)C=CC1Oc1ccc(-c2ccccc2)cc1 (stereo not given),AC50,Cytochrome P450 2C9,5.01 µM (inconclusive)

# Reference: ChEMBL document CHEMBL1201862, “PubChem BioAssay data set” (2004)
